Assay results from patent US11597917B2, “In vitro and in vivo enrichment strategy targeting lymphocytes derived from vector transduced HSCs for therapy of disorders” (THE MEDICAL COLLEGE OF WISCONSIN, INC., priority 2017, dated 2023).

Experiments:
Jurkat cells [1] = assay: α-gal A activity (4-MUG substrate) in lysates and supernatants of transduced Jurkat cells after MPA enrichment; assay type: cell-based; conditions: Jurkat cells transduced with dual promoter vector; 0.5 μM MPA, 16 days, then recovery; FIGS. 4E and 4F
Description: (§1) In this Example, Jurkat cells (immortalized T cells) are used. […] 3 cell lines were generated by transducing Jurkat cells with the vectors described or with protamine sulphate only as a mock. VCN/genome was adjusted by dilution of the transduced cells with mock transduced cells. Each of these were seeded in 4 replicates and either treated with DMSO (vehicle) or 0.5 μM MPA. Fresh media with drug or vehicle was added after centrifuging the cells and discarding old media every two days. Samples were taken for cell counts. After 16 days of treatment, cells were reseeded for recovery in fresh media for a total of four days, after which they were counted and reseeded again for two days for α-gal A activity assay or one day for gDNA.

Jurkat cells [2] = assay: In vitro enrichment of transduced Jurkat cells with MPA: vector copy number per genome by qPCR; assay type: cell-based; conditions: Jurkat cells transduced with dual promoter vector; 0.5 μM MPA vs DMSO, 16 days; FIG. 4C
Description: as §1
VCN was determined by comparison to a standard curve using a qPCR based method and normalized to the number of beta actin (ACTB) copies to determine a per genome value. Patterned bars in the chart refer to samples treated with DMSO and solid bars refer to those treated with MPA.

Jurkat cells [3] = assay: Glucocerebrosidase activity in supernatant of transduced Jurkat cells after MPA enrichment (fluorometric assay); assay type: cell-based; conditions: cells transduced with GBA+(IY) virus and treated with MPA (0.5 μM, 16 days); FIG. 13
Description: Jurkat cells were transduced with lentivirus at an MOI of ˜0.1-0.2. Cells were cultured for at least 2 weeks prior to measuring baseline vector copy number. Cell lines for each of LV/GBA+eGFP and LV/GBA+(IY), or non-transduced cells were produced in this way. To measure enrichment, testing was carried out as described in Example 2. Briefly, cells at known densities were seeded in quadruplicate for each cell line, and maintained in culture for 16 days with either vehicle (DMSO) or 0.5 μM MPA, with media being replaced every two days. After treatment, cells were diluted and recovered for 4-8 days. gDNA was extracted from cells sampled from each well, and vector copy number analyses were carried out using qPCR. Cells from each well were also seeded at known and equal densities for 72 hours, after which supernatant was collected, cleared of cells and debris, and glucocerebrosidase activity measured using a fluorometric assay. Briefly, supernatants were incubated for 1 hour with substrate solution containing 4-methylumbelliferyl-beta-D-glucopyranoside (15 mM). The reaction was quenched with 0.1M glycine at pH 10 and fluorescence of the reaction product quantified against a calibration curve of the product.

Fabry mice = assay: In vivo enrichment in Fabry mice engrafted with transduced HSPCs: observation of toxicities; conditions: 0.15% MMF medicated chow ad libitum, 2 months of treatment
Description: Briefly, male and female Fabry mice aged 2-5 months of age are treated with 5-fluorouracil (5-FU) to deplete bone marrow cells and enrich for HSPCs. Four days after treatment these mice are euthanized, and bone marrow is isolated from femurs and tibia, and processed for transduction. Cells are cultured in stem cell media and transduced using lentivirus described above for 12 hours at a multiplicity of infection (MOI) of 10. Transduced cells are then harvested and prepared for administration to recipient mice. Recipients are male Fabry mice aged approximately 2 months. These are irradiated prior to engrafting transduced cells to deplete their own hematopoietic system. Some cells are retained in culture for an extra 48 hours to assay transduction. Mice are kept on prophylactic antibiotics as support during immune recovery. Engraftment of transduced cells is assessed by measuring VCN/genome in circulation using a qPCR-based assay and comparing to a standard curve, and by measuring plasma α-gal A activity. MMF medicated chow may be started after stable engraftment has been achieved, typically after 4 months. […] A baseline bleed was done to confirm engraftment and the mice were given 0.15% MMF capsule (TEVA generics, Israel) medicated chow ad libitum, and bled every 15 days to observe changes in plasma α-gal A activity, which is a measure of enrichment. […]

SMILES	α-gal A activity in cell lysates and culture supernatants (Jurkat cells [1])	increase in the vector copy number of the total population per genome (Jurkat cells [2]) [fold]	enzyme activity in cell culture supernatant (Jurkat cells [3])	drug-related toxicities (Fabry mice)
COc1c(C)c2c(c(O)c1C/C=C(\C)CCC(=O)O)C(=O)OC2 [MPA, mycophenolic acid]	corresponding increase in α-gal A activity	~8	increased enzyme activity	–
COc1c(C)c2c(c(O)c1C/C=C(\C)CCC(=O)OCCN1CCOCC1)C(=O)OC2 [MMF, mycophenolate mofetil]	–	–	–	No drug-related toxicities were observed
